Values of other authors, collected in patent US20100003344A1, “Cosmetic Skincare Method Employing Mechanical Stresses” (L'OREAL, priority 2005, published 2010).
Like-named read-outs stand apart in the source and are kept apart here. Ends that are not written are not given here.

What was measured:
β1 integrins [1] = test system: β1 integrins
[2] = test system: α2, α3, α6, αv and β1 integrins; conditions: keratinocytes in culture or in reconstructed skins
beta1 integrins = conditions: stated as known
β1 integrins [3] = conditions: cells in culture
β1 integrins [4] = conditions: applied to the skin ex vivo

Substance	expression of integrins, in particular the α2, α3, α6, αv and β1 integrins [2]	number of mechanoreceptors (beta1 integrins) on the surface of the keratinocytes (beta1 integrins)	other results
RDFTKATNIRLRFLR [VINCI 01]	–	–	expression of β1 integrins (β1 integrins [1]): stimulates the expression of β1 integrins
copper gluconate	capable of increasing the expression of integrins	–	–
manganese gluconate	capable of increasing the expression of integrins	increase the number of mechanoreceptors	–
zinc gluconate	capable of increasing the expression of integrins	–	–
KLDAPT [VINCI 02]	–	increase the number of mechanoreceptors	expression of β1 integrins (β1 integrins [3]): stimulates the expression of β1 integrins
GPQGPQ [COLLAXYL]	–	–	expression of β1 integrins (β1 integrins [4]): stimulates the expression of β1 integrins
